Patent US11213548B2, “Modulatable switch for selection of donor modified cells” (CSL Behring Gene Therapy, Inc., priority 2017, dated 2022)

Experiments:
Format in all cases: cell-based
K562 cells [1] = experiment: Negative selection with MTX of transduced or transfected K562 cells; settings: 0.3 uM MTX, day 0 to day 14
Procedure: Transduced or transfected K562 cells (such as those from Example 6) were cultured with or without MTX from day 0 to day 14. The medium was refreshed every 3 to 4 days. GFP was analyzed on flow machine and InDel % was analyzed by T7E1 assay. […] FIG. 11B illustrates that the transfected K562 cells were eliminated under treatment with 0.3 uM of MTX at a faster pace as compared with the HPRT-KD population.

CEM cells [2] = experiment: Negative selection with MTX or MPA of transduced or transfected CEM cells; settings: day 0 to day 14; for GFP population of transduced cells under treatment: CEM experiment (K562 in the source), steady for untreated group
K562 cells [3] = experiment: Negative selection with MTX for K562 cells transduced with different lentiviral vector designs
Procedure: K562 cells were transduced with either TL20cw-GFP virus soup at dilution factor of 16, TL2Ocw-Ubc/GFP-7SK/sh734 (one sequentially encoding GFP and a shRNA designed to knockdown HPRT) virus soup at dilution factor of 16 and TL2Ocw-7SK/sh734-UBC/GFP (one sequentially encoding a shRNA designed to knockdown HPRT and GFP) virus soup at dilution factor of 16, respectively (see FIG. 13). All cells were cultured with medium containing 0.3 uM of MTX 3 days later. Also shown in FIG. 13 are K562 cells which were transduced by TL20cw-7SK/sh734-UBC/GFP (one encoding a nucleic acid encoding a shRNA designed to knockdown HPRT) virus soup at dilution factor of 1024 one month earlier and where GFP-sh734-transduced cells were positively selected with 300 nM of 6TG 6-TG was selection during that time to reach more than 90% of GFP+ population. […] The relative sh734 expression per VCN for sh734-GFP-transduced cells and GFP-sh73-transduced cells were measured.

K562 cells [4] = experiment: Positive selection with 6TG of HPRT knockdown / knockout K562 cells (ex vivo)
Procedure: K562 cells were transduced with a vector including a nucleic acid sequence designed to knockdown HPRT and a nucleic acid sequence encoding the green fluorescent protein (GFP) (MOI=1/2/5); or were transfected with a nanocapsule including CRISPR/Cas9 and a sgRNA to HPRT (100 ng/5×10^4 cells) at day zero (0). 6-TG was added into the medium from day 3 through day 14. The medium was refreshed every 3 to 4 days. GFP was analyzed on flow machine and InDel % as analyzed with T7E1 assay. FIG. 9A illustrates that the GFP+ population of transduced K562 cells increased from day 3 to day 14 under treatment of 6TG; while the GFP+ population was almost steady without 6-TG treatment. […] It should be noted that 6TG selection process occurred much faster on HPRT knockout cells as compared with the HPRT knockdown cells (MOI=1) at the same concentration of 300 nM of 6TG from day 3 to day 14. The difference between knockdown and knockout could be explained by some level of residual HPRT by the RNAi knockdown approach as compared with the full elimination of HPRT by the knockout approach. Therefore, HPRT-knockout cells were believed to have a much higher tolerance against 6TG and are believed to grow much faster at higher dosages of 6TG (900 nM) compared with HPRT-knockdown cells.

CEM cells [5] = experiment: Positive selection with 6TG of HPRT knockdown / knockout CEM cells (ex vivo)
Procedure: CEM cells were transduced with a vector including a nucleic acid sequence designed to knockdown HPRT and a nucleic acid sequence encoding the green fluorescent protein or transfected with a nanocapsule including CRISPR/Cas9 and a sgRNA to HPRT at day 0. 6-TG was added into the medium from day 3 to day 17. The medium was refreshed every 3 to 4 days. GFP as analyzed on flow machine and InDel % is analyzed by T7E1 assay. FIG. 10A illustrates that the GFP+ population of transduced […] cells increased from day 3 to day 17 under treatment of 6TG while GFP+ population was almost steady without 6-TG. […] It should be noted that 6TG selection process occurred faster on HPRT knockout cells rather than HPRT knockdown cells (MOI=1) at the same concentration of 6TG from day 3 to day 17.

CN(Cc1cnc2nc(N)nc(N)c2n1)c1ccc(C(=O)N[C@@H](CCC(=O)O)C(=O)O)cc1 [MTX, methotrexate]
GFP population of transduced K562 cells under treatment of MTX (K562 cells [1]; HPRT knockdown, steady without MTX): decreased | Transfected (HPRT knockout) K562 cells under treatment with MTX (K562 cells [1]; faster pace than HPRT-KD population): eliminated | GFP population of transduced cells under treatment (CEM cells [2]; 0.3 uM MTX): decreased | HPRT knockout population of CEM cells under treatment (CEM cells [2]; 0.3 uM MTX): eliminated at a faster pace | Deselection of transduced K562 cells by methotrexate (K562 cells [3]; 0.3 uM MTX, sh734-high-expression versus sh734-low-expression lentiviral vector): could only deselect cells transduced with sh734-high-expression lentiviral vector

Nc1nc2nc[nH]c2c(=S)[nH]1 [6TG, 6-thioguanine]
Speed of selection of HPRT knockout K562 cells, higher dosage versus 300/600 nM of 6TG (K562 cells [4]; 900 nM 6TG compared with 300/600 nM, day 3 to 14): faster selection | HPRT knockout population of K562 cells under treatment of 6TG (K562 cells [4]; CRISPR/Cas9 + sgRNA to HPRT nanocapsule, day 3 to 14, InDel % by T7E1 assay): increased | GFP+ population of transduced K562 cells under treatment of 6TG (K562 cells [4]; HPRT knockdown vector with GFP, MOI=1/2/5, 6-TG in medium day 3 to day 14, flow, almost steady without 6-TG): increased | Speed of 6TG selection on HPRT knockout cells compared with HPRT knockdown cells (MOI=1) (K562 cells [4]; K562, 300 nM 6TG, day 3 to day 14): much faster | Speed of selection of HPRT knockout CEM cells, higher dosage versus 300/600 nM of 6TG (CEM cells [5]; 900 nM 6TG compared with 300/600 nM, day 3 to 17): faster selection | GFP+ population of transduced cells under treatment of 6TG (CEM cells [5]; CEM experiment (K562 in the source), HPRT knockdown vector with GFP, 6-TG day 3 to day 17, almost steady without 6-TG): increased | Speed of 6TG selection on HPRT knockout cells compared with HPRT knockdown cells (MOI=1) (CEM cells [5]; CEM, same concentration of 6TG, day 3 to day 17): faster | HPRT knockout population of CEM cells under treatment of 6TG (CEM cells [5]; CRISPR/Cas9 + sgRNA to HPRT nanocapsule, day 3 to 17, InDel % by T7E1 assay): increased | GFP+ population reached by positive selection with 6TG (K562 cells [3]; 300 nM 6TG, K562 transduced at dilution factor of 1024 one month earlier): more than 90%

COc1c(C)c2c(c(O)c1C/C=C(\C)CCC(=O)O)C(=O)OC2 [MPA, mycophenolic acid]
GFP population of transduced cells under treatment (CEM cells [2]; 1 uM MPA): decreased | HPRT knockout population of CEM cells under treatment (CEM cells [2]; 1 uM MPA): eliminated at a faster pace | GFP population of transduced cells under treatment (CEM cells [2]; 10 uM MPA): decreased | HPRT knockout population of CEM cells under treatment (CEM cells [2]; 10 uM MPA): eliminated at a faster pace
